In patent US20130045952A1, “ABA Receptor Agonists for Increased Plant Stress Resistance” (Van Andel Research Institute, priority 2011, published 2013):

Assays:
Format in all cases: biochemical
His6-PYR1 / biotin-ABI2 = biological target: T1, His6-PYR1 / biotin-ABI2 (Arabidopsis thaliana, UniProt O49686); assay: AlphaScreen dose response, PYR1-ABI2 interaction; settings: 100 nM His6-PYR1, 100 nM biotin-PP2C, 0-100 μM agonist; from dose response curves
T1 construct: made in house; host or cells: E. coli (stated for the PP2Cs; not expressly for PYR1)
T1 sequence (O49686 1-191): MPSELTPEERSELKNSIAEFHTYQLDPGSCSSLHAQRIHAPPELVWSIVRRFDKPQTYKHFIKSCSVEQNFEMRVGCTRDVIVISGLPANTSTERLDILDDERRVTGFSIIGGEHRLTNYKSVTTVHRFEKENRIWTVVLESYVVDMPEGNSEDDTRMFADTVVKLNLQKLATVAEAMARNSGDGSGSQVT
T1 sequence (O04719 101-423 partner limits assumed): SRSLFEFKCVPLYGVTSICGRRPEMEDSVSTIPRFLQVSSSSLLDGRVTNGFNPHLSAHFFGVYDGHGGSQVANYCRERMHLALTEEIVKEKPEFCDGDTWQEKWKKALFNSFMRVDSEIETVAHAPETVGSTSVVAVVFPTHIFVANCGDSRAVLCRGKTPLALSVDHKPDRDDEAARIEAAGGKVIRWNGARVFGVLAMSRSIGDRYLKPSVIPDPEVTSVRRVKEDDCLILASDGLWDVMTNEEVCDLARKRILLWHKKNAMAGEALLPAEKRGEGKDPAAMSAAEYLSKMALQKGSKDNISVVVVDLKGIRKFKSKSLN
Protocol: (§1) Interactions between PYR/PYL and PP2Cs were assessed by luminescence-proximity AlphaScreen technology (Perkin Elmer). Briefly, biotinylated PP2Cs were attached to streptavidin-coated donor beads, and H6-tagged PYR/PYL receptors were attached to nickel-chelated acceptor beads. The donor and acceptor beads were brought into proximity by the interactions between PYR/PYLs and PP2Cs, which were measured with and without ligands. When excited by a laser beam of 680 nm, the donor beam emits singlet oxygen that activates thioxene derivatives in the acceptor beads, which releases photons of 520-620 nm as the binding signal. The experiments were conducted with 100 nM of PP2Cs and PYR/PYL proteins in the presence of 5 ug/ml donor and acceptor beads in a buffer of 50 mM MOPS, pH7.4, 50 mM NaF, […], and 0.1 mg/ml bovine serum albumin. The results were based on an average of three experiments with standard errors typically less than 10% of the measurements.
The results shown in Table 5b were calculated from the dose response curves of the dependence of the interaction between 100 nM His6-PYR1 and 100 nM biotin-PP2C on the presence of 0-100 μM agonists determined by AlphaScreen luminescence proximity assay. Key (EC50 in μM): ++++=<5.0 μM; +++=5-10 μM; ++=10-20 μM; and +=>20-60 μM.

ABI2 = biological target: T2, ABI2 (Arabidopsis thaliana, UniProt O04719+O49686); assay: PP2C phosphatase activity assay, ABI2; settings: 200 nM PP2C; SnRK2.6 phosphopeptide substrate; None = 100
T2 construct: ABI1 (residues 117-434) and ABI2 (residues 101-423) were expressed as H6Sumo fusion proteins; H6Sumo (N); made in house; host or cells: E. coli BL21
T2 sequence (O04719 101-423 limits assumed): T1 sequence (O04719 101-423 partner limits assumed)
T2 sequence (O49686 1-191): T1 sequence (O49686 1-191)
Protocol: (§2) Mutant proteins were expressed as H6GST-fusion proteins and purified by glutathione sepharose chromatography. Protein-protein interactions were determined by luminescence proximity AlphaScreen assay. Biotinylated PP2C proteins for the luminescence proximity assay were generated by in vivo biotinylation of avitag-PP2C fusion proteins. PP2C phosphatase activity was measured by phosphate release from a SnRK2.6 phosphoprotein.
(§3) PP2Cs and PYR/PYL proteins were pre-incubated at the indicated concentrations in 50 mM imidazole, pH 7.2, 5 mM MgCl2, 0.1% β-mercaptoethanol and 0.5 mg/ml BSA for 30 min at room temperature. Reactions were started by addition of 100 μM of a phosphopeptide corresponding to amino acids 170-180 of SnRK2.6 (HSQPK^pSTVGTP). This peptide is phosphorylated at a single residue corresponding to Ser175 in SnRK2.6, whose phosphorylation is required for SnRK2.6 kinase activity^32. Phosphate release from ^pS175 from the phosphopeptide was determined by colorimetric assay (BioVision).

His6-PYL2 / biotin-PP2C = biological target: T3, His6-PYL2 / biotin-PP2C (Arabidopsis thaliana, UniProt O80992); assay: AlphaScreen luminescence proximity assay, PYL2-PP2C interaction; settings: for Stimulation of the interaction between PYL2 and PP2C (binding signal): 100 nM His6-PYL2, 100 nM biotin-PP2C, 100 μM agonist, normalized against a pyrabactin control
T3 construct: PYL2 (residues 14-188), and HAB1 (residues 172-511) were prepared as recombinant proteins in E. coli; made in house; host or cells: E. coli
T3 sequence (O80992 14-188): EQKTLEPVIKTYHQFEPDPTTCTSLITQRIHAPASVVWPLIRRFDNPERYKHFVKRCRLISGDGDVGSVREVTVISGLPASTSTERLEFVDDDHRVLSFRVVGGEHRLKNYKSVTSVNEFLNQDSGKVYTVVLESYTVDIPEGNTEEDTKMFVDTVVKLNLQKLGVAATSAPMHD
Protocol: as §2, §1
(§4) Values were determined in different experiments and normalized against a pyrabactin control. Blank spaces mean no experimental data is available. Key (photon counts (binding signal units) in Alphascreen luminescence proximity assay): “+++ is >75,000; ++ is 25,000−75,000; + is <25,000.

HAB1 = biological target: T4, HAB1 (Arabidopsis thaliana, UniProt O49686+Q9CAJ0); assay: PP2C phosphatase activity assay, HAB1; settings: 200 nM PP2C; SnRK2.6 phosphopeptide substrate; None = 100
T4 construct: HAB1 (residues 172-511) were prepared as recombinant proteins in E. coli; H6GST or H6Sumo; made in house; host or cells: E. coli
T4 sequence (Q9CAJ0 172-511 limits assumed): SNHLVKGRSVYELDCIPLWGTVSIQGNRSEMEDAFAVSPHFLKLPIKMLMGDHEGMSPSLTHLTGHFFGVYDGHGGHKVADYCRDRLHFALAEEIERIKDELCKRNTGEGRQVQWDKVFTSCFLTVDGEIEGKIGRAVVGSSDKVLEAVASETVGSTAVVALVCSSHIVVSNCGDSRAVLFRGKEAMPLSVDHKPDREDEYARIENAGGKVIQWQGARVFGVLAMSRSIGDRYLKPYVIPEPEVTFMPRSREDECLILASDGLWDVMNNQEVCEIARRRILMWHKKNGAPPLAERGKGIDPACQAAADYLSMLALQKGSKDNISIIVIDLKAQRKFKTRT
T4 sequence (O49686 1-191): T1 sequence (O49686 1-191)
Protocol: as §2, §3

His6-PYR1 / biotin-PP2C = biological target: T5, His6-PYR1 / biotin-PP2C (Arabidopsis thaliana, UniProt O49686); assay: AlphaScreen luminescence proximity assay, PYR1-PP2C interaction; settings: for Stimulation of the interaction between PYR1 and PP2C (binding signal): 100 nM His6-PYR1, 100 nM biotin-PP2C, 100 μM agonist, normalized against a pyrabactin control
T5 construct: made in house; host or cells: E. coli is stated for PYL1, PYL2 and the PP2Cs, not expressly for PYR1
T5 sequence (O49686 1-191): T1 sequence (O49686 1-191)
Protocol: as §2, §1, §4

[1] = purified proteins in vitro, HAB1, ABI1, ABI2

| EC50 (His6-PYR1 / biotin-ABI2) [µM] | % Phosphatase Activity ABI2 (ABI2) [%] | Stimulation of the interaction between PYL2 and PP2C (binding signal) (His6-PYL2 / biotin-PP2C) | % Phosphatase Activity HAB1 (HAB1) [%] | Stimulation of the interaction between PYR1 and PP2C (binding signal) (His6-PYR1 / biotin-PP2C) | Compound | Effect on ABA-dependent PYL2 interaction with all three PP2Cs (His6-PYL2 / biotin-PP2C; in the presence of ABA, concentration-dependent) | Promotion of PYL2 interaction with the three PP2Cs (His6-PYL2 / biotin-PP2C; [1]) | Promotion of PYR1 interaction with the three PP2Cs (His6-PYR1 / biotin-PP2C; [1]) |
| --- | --- | --- | --- | --- | --- | --- | --- | --- |
| 20 to 60 | 4.5 ± 0.5 | + (+ is <25,000) | 8.8 ± 0.3 | +++ (+++ is >75,000) | CCN1C(=O)c2cccc3c(S(=O)(=O)NC[C@@H]4CCCO4)ccc1c23 [Compound 11] |  |  |  |
| 20 to 60 | 3.8 ± 0.6 | + (+ is <25,000) | 6.1 ± 1.9 | +++ (+++ is >75,000) | CCOC(=O)CNS(=O)(=O)c1ccc2c3c(cccc13)C(=O)N2CC [Compound 2] |  |  |  |
| 20 to 60 | 3.2 ± 0.7 | + (+ is <25,000) | 16.6 ± 2.0 | + (+ is <25,000) | O=C1Nc2ccc(S(=O)(=O)NCc3ccccn3)c3cccc1c23 [Compound 1] |  |  |  |

| Compound | EC50 (His6-PYR1 / biotin-ABI2) [µM] | % Phosphatase Activity ABI2 (ABI2) [%] | Stimulation of the interaction between PYL2 and PP2C (binding signal) (His6-PYL2 / biotin-PP2C) | % Phosphatase Activity HAB1 (HAB1) [%] | Stimulation of the interaction between PYR1 and PP2C (binding signal) (His6-PYR1 / biotin-PP2C) | Effect on ABA-dependent PYL2 interaction with all three PP2Cs (His6-PYL2 / biotin-PP2C; in the presence of ABA, concentration-dependent) | Promotion of PYL2 interaction with the three PP2Cs (His6-PYL2 / biotin-PP2C; [1]) | Promotion of PYR1 interaction with the three PP2Cs (His6-PYR1 / biotin-PP2C; [1]) |
| --- | --- | --- | --- | --- | --- | --- | --- | --- |
| O=S(=O)(NCc1ccccn1)c1ccc(Br)c2ccccc12 [Pyrabactin, pyrabactin] | 5 to 10 | 1.5 ± 0.8 |  | 12.6 ± 0.3 |  | inhibited | did not promote | strongly promoted |
